For 34 molecules, IC50 results are on record in patent US20250353841A1 (BIOGEN MA INC., priority 2022, published 2025).

In this assay the test system is mutant Huntington (HTT) protein. Nature of the assay: HTT Mutant HTRF iPSC assay (mHTT protein lowering). Type of assay: cell-based. Particulars: human iPSC derived from a HTT patient with a poly-Q49 mutation. (In general: Time-resolved FRET reads energy transfer from a long-lived donor to a nearby acceptor.)

pIC50: −log10 of the molar value.

A word on the pIC50: it is −log10 of the IC50, conventionally taken in molar units. Higher therefore signals a small IC50. Molecule `Cc1cn2nc(-c3cc(F)c4[nH]c(C5CCNCC5)nc4c3)cc(C)c2n1` [Compound 140, 6-(7-fluoro-2-(piperidin-4-yl)-1H-benzo[d]imidazol-5-yl)-2,8-dimethylimidazo[1,2-b]pyridazine] had a pIC50 of more than 7.00.
To `CNC1CC(C(=O)Nc2cn3cc(-c4cc(C)c5nc(C)cn5n4)cc(F)c3n2)C1` (stereo not shown) [Compound 249, N-(6-(2,8-dimethylimidazo[1,2-b]pyridazin-6-yl)-8-fluoroimidazo[1,2-a]pyridin-2-yl)-3-(methylamino)cyclobutane-1-carboxamide] belongs more than 7.00; to `Cc1cn2nc(-c3cc(F)c4nc(NC(=O)C5CN(C)C5(C)C)cn4c3)cc(C)c2n1` (racemic) [Compound 259, N-(6-(2,8-dimethylimidazo[1,2-b]pyridazin-6-yl)-8-fluoroimidazo[1,2-a]pyridin-2-yl)-1,2,2-trimethylazetidine-3-carboxamide], 6.00 to 7.00.
`Cc1cn2nc(-c3cc(F)c4nc(N5CCC6(CCN(C)CC6)C5)oc4c3)cc(C(F)(F)F)c2n1` [Compound 520, 4-fluoro-6-(2-methyl-8-(trifluoromethyl)imidazo [1,2-b]pyridazin-6-yl)-2-(8-methyl-2,8-diazaspiro[4.5]decan-2-yl)benzo[d]oxazole] had a pIC50 of more than 7.00.
Molecule `Cc1nc2cc(-c3cc(F)c4nc(C5CCNCC5)cn4c3)ccc2[nH]1` [Compound 50, 5-(8-fluoro-2-(piperidin-4-yl)imidazo[1,2-a]pyridin-6-yl)-2-methyl-1H-benzo[d]imidazole] gave a pIC50 of 5.05 to 6.00.
In turn, `Cc1cn2nc(-c3cc(F)c4nc(C5CC6(CNC6)C5)nn4c3)cc(C)c2n1` [Compound 442, 6-(2,8-dimethylimidazo[1,2-b]pyridazin-6-yl)-8-fluoro-2-(2-azaspiro[3.3]heptan-6-yl)-[1,2,4]triazolo[1,5-a]pyridine] gave a pIC50 of 6.00 to 7.00.
To `COc1cc(-c2cc(F)c3nc(C4CCNCC4)cn3c2)cc2cn(C)nc12` [Compound 83, 5-(8-fluoro-2-(piperidin-4-yl)imidazo[1,2-a]pyridin-6-yl)-7-methoxy-2-methyl-2H-indazole] belongs 6.00 to 7.00.
`Cc1cn2nc(-c3cc(F)c4nc([C@H]5[C@@H]6CN(C7CCC7)C[C@@H]65)cn4c3)cc(C)c2n1` [Compound 211, 6-(2-((1R,5S,6r)-3-cyclobutyl-3-azabicyclo[3.1.0]hexan-6-yl)-8-fluoroimidazo[1,2-a]pyridin-6-yl)-2,8-dimethylimidazo[1,2-b]pyridazine]: the pIC50 was more than 7.00.
In the case of `CCN1C[C@@H]2[C@H](C1)[C@H]2c1cn2cc(-c3cc(C)c4nc(C)cn4n3)cc(F)c2n1` [Compound 188, 6-(2-((1R,5S,6r)-3-ethyl-3-azabicyclo[3.1.0]hexan-6-yl)-8-fluoroimidazo[1,2-a]pyridin-6-yl)-2,8-dimethylimidazo[1,2-b]pyridazine], the negative-log IC50 (pIC50) is 6.00 to 7.00.
For the molecule `COc1cc(-c2cc(F)c3nc(N4CCC5(CCN(C)CC5)C4)oc3c2)nn2nc(C)nc12` [Compound 505, 4-fluoro-6-(8-methoxy-2-methyl-[1,2,4]triazolo[1,5-b]pyridazin-6-yl)-2-(8-methyl-2,8-diazaspiro[4.5]decan-2-yl)benzo[d]oxazole], the pIC50 is more than 7.00.
On to `Cc1cn2nc(-c3cc(F)c4nc([C@H]5CCCNC5)cn4c3)cc(C)c2n1` (single isomer, unassigned) [Compound 117], for which the pIC50 is 6.00 to 7.00.
`N#Cc1cccc2[nH]c(-c3cc(F)c4nc(C5CCNCC5)cn4c3)cc12` [Compound 56, 2-(8-fluoro-2-(piperidin-4-yl)imidazo[1,2-a]pyridin-6-yl)-1H-indole-4-carbonitrile] gave a pIC50 of 5.05 to 6.00.
`COCCN1CCC(Nc2nc3c(F)cc(-c4cc(C)c5nc(C)cn5n4)cc3o2)CC1` [Compound 480, 6-(2,8-dimethylimidazo[1,2-b]pyridazin-6-yl)-4-fluoro-N-(1-(2-methoxyethyl)piperidin-4-yl)benzo[d]oxazol-2-amine] showed a negative-log IC50 (pIC50) of more than 7.00.
With `Cc1cn2nc(-c3cc(OC(F)F)c4nc(C5CCNCC5)cn4c3)cc(C)c2n1` [Compound 537, 6-[8-(difluoromethoxy)-2-(4-piperidyl)imidazo[1,2-a]pyridin-6-yl]-2,8-dimethyl-imidazo[1,2-b]pyridazine] the figure was more than 7.00; with `CCc1nc(C)cn2cc(-c3cc(F)c4nc(C5CCNCC5)nn4c3)cc12` [Compound 152], more than 7.00.
`Cc1cn2nc(-c3cc(F)c4nc(N(C)C5CC(C)(C)NC(C)(C)C5)oc4c3)cc(C)c2n1` [Compound 467, 6-(2,8-dimethylimidazo[1,2-b]pyridazin-6-yl)-4-fluoro-N-methyl-N-(2,2,6,6-tetramethylpiperidin-4-yl)benzo[d]oxazol-2-amine]: the pIC50 was 6.00 to 7.00.
Molecule `Cc1nc2ccc(-c3ccc4nc([C@H]5[C@@H]6CN(C)C[C@@H]65)cn4c3)nn2n1` [Compound 553, 2-methyl-6-(2-((1R,5S,6r)-3-methyl-3-azabicyclo[3.1.0]hexan-6-yl)imidazo[1,2-a]pyridin-6-yl)-[1,2,4]triazolo[1,5-b]pyridazine] had a pIC50 of 6.00 to 7.00.
Molecule `Cc1cn2nc(-c3cc(F)c4nc(NC(=O)C5CN(C(C)C)C5)cn4c3)cc(C(F)F)c2n1` [Compound 290, N-[6-[8-(difluoromethyl)-2-methyl-imidazo[1,2-b]pyridazin-6-yl]-8-fluoro-imidazo[1,2-a]pyridin-2-yl]-1-isopropyl-azetidine-3-carboxamide] showed a pIC50 of more than 7.00.
To `Cn1cc2cc(-c3cc(F)c4nc(C5CCNCC5)cn4c3)cc(C(F)F)c2n1` [Compound 84, 7-(difluoromethyl)-5-(8-fluoro-2-(piperidin-4-yl)imidazo[1,2-a]pyridin-6-yl)-2-methyl-2H-indazole] belongs more than 7.00; to `Cc1cn2nc(-c3cc(F)c4nc([C@@]56CC[C@H](C5)NC6)cn4c3)cc(C)c2n1` (single isomer, unassigned) [Compound 116], 5.05 to 6.00.
For the molecule `Cc1cn2cc(-c3cc(F)c4nc(C5CCNCC5)nn4c3)cc(F)c2n1` [Compound 151, 8-fluoro-6-(8-fluoro-2-methylimidazo[1,2-a]pyridin-6-yl)-2-(piperidin-4-yl)-[1,2,4]triazolo[1,5-a]pyridine], the pIC50 was 5.05 to 6.00.
`CNC12CCC(c3cn4cc(-c5cc(F)c6nn(C)cc6c5)cc(F)c4n3)(C1)C2` [Compound 77, 4-(8-fluoro-6-(7-fluoro-2-methyl-2H-indazol-5-yl)imidazo[1,2-a]pyridin-2-yl)-N-methylbicyclo[2.1.1] hexan-1-amine] gave a pIC50 of 5.05 to 6.00.
In turn, `Cc1cn2nc(-c3cc(F)c4nc(C5CCN(C6CCC6)CC5)cn4c3)cc(C)c2n1` [Compound 69, 6-[2-(1-cyclobutyl-4-piperidyl)-8-fluoro-imidazo[1,2-a]pyridin-6-yl]-2,8-dimethyl-imidazo[1,2-b]pyridazine] gave a pIC50 of more than 7.00.
Molecule `Cc1cn2nc(-c3cc(F)c4nc(NC(=O)C5CCNC(C)C5)nn4c3)cc(C)c2n1` (stereo not shown) [Compound 322, N-(6-(2,8-dimethylimidazo[1,2-b]pyridazin-6-yl)-8-fluoro-[1,2,4]triazolo[1,5-a]pyridin-2-yl)-2-methylpiperidine-4-carboxamide] gave a pIC50 of 6.00 to 7.00.
With `CNCCc1cn2cc(-c3cc(C)c4nc(C)cn4n3)cc(F)c2n1` [Compound 12, 2-(6-(2,8-dimethylimidazo[1,2-b]pyridazin-6-yl)-8-fluoroimidazo[1,2-a]pyridin-2-yl)-N-methylethan-1-amine], the pIC50 is 6.00 to 7.00.
Molecule `Cc1cn2nc(-c3cc(F)c4nc([C@H]5CCNC5)cn4c3)cc(C)c2n1` (single isomer, unassigned) [Compound 190] gave a pIC50 of 6.00 to 7.00.
For the molecule `Cc1cn2nc(-c3cc(F)c4nc(NC(=O)C5CCCCNC5)nn4c3)cc(C)c2n1` (stereo not shown) [Compound 321, N-(6-(2,8-dimethylimidazo[1,2-b]pyridazin-6-yl)-8-fluoro-[1,2,4]triazolo[1,5-a]pyridin-2-yl)azepane-3-carboxamide], the pIC50 is 6.00 to 7.00.
With `Cc1cn2nc(-c3cc(F)c4[nH]c(C5CCN(CC6CC6)CC5)nc4c3)cc(C)c2n1` [Compound 422, 6-(2-(1-(cyclopropylmethyl)piperidin-4-yl)-7-fluoro-1H-benzo[d]imidazol-5-yl)-2,8-dimethylimidazo[1,2-b]pyridazine] the figure was more than 7.00; with `Cc1cn2nc(-c3cc(F)c4nc(C(=O)NC5CN(C(C)C)C5)cn4c3)cc(C)c2n1` [Compound 331, 6-(2,8-dimethylimidazo[1,2-b]pyridazin-6-yl)-8-fluoro-N-(1-isopropylazetidin-3-yl)imidazo[1,2-a]pyridine-2-carboxamide], more than 7.00.
To `Cc1cn2nc(-c3cc(C)c4nc(C5CCNCC5)cn4c3)cc(C)c2n1` [Compound 555, 2,8-dimethyl-6-(8-methyl-2-(piperidin-4-yl)imidazo[1,2-a]pyridin-6-yl)imidazo[1,2-b]pyridazine] belongs 6.00 to 7.00; to `CCN1CCC(n2nc3cc(-c4cc(C)c5nc(C)cn5n4)cc(F)c3n2)CC1` [Compound 376, 6-(2,8-dimethylimidazo[1,2-b]pyridazin-6-yl)-2-(1-ethyl-4-piperidyl)-4-fluoro-benzotriazole], 6.00 to 7.00.
`Cc1cn2nc(-c3cc(F)c4cn(C5CCNCC5)nc4c3)cc(C)c2n1` [Compound 135, 6-(4-fluoro-2-(piperidin-4-yl)-2H-indazol-6-yl)-2,8-dimethylimidazo[1,2-b]pyridazine] gave a pIC50 of 6.00 to 7.00.
For the molecule `Cc1cn2nc(-c3cc(F)c4nc(C5CCC6(CCN(C)CC6)C5)cn4c3)cc(C)c2n1` (stereo not shown) [Compound 229, 2-(6-(2,8-dimethylimidazo[1,2-b]pyridazin-6-yl)-8-fluoroimidazo[1,2-a]pyridin-2-yl)-8-methyl-8-azaspiro[4.5]decane], the pIC50 was more than 7.00.
The molecule `Cc1cn2nc(-c3cc(F)c4nc(NC(=O)C5CNC5(C)C)cn4c3)cc(C)c2n1` (racemic) [Compound 260, N-(6-(2,8-dimethylimidazo[1,2-b]pyridazin-6-yl)-8-fluoroimidazo[1,2-a]pyridin-2-yl)-2,2-dimethylazetidine-3-carboxamide] gave a pIC50 of 6.00 to 7.00.
